Article PMC7999549, “PBP4 Is Likely Involved in Cell Division of the Longitudinally Dividing Bacterium Candidatus Thiosymbion Oneisti” (Antibiotics, 2021)

How the values were obtained:
PBP4^TO [1] = target: T1, PBP4^TO (Candidatus Thiosymbion oneisti, UniProt Z9LUN3GEC2); experiment: Bocillin-FL labelling, SDS-PAGE fluorescence; assay type: binding; parameters: His-tagged, expressed in cytoplasm of E. coli SF100 (plasmid pJW06, pET302 vector named); gene 1245 nt, 414 aa; dimers and higher oligomers on native PAGE; settings: pH 7.5, 50 mM NaCl, 10 mM MgCl2, 28 °C, 30 min; covalent
T1 sequence (Z9LUN3GEC2 31-414 limits assumed): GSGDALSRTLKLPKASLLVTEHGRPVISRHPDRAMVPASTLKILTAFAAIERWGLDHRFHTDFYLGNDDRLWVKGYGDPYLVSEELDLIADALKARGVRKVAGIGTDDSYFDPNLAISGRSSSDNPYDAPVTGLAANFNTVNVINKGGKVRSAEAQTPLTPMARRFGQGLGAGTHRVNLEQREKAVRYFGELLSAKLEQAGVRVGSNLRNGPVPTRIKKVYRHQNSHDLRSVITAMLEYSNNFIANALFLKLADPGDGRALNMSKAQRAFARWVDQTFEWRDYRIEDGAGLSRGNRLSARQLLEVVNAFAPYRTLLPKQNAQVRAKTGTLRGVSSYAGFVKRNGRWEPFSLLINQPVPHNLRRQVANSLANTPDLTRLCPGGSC

PBP4^TO [2] = target: T1, PBP4^TO; experiment: Bocillin-FL competition, SDS-PAGE fluorescence; settings: pH 7.5, 50 mM NaCl, 10 mM MgCl2, 28 °C, 20 min before 15 μg/mL Bocillin-FL (30 min)

## CC1=CC(C)=[N+]2C1=Cc1ccc(CCC(=O)Nc3ccc(OCC(=O)N[C@@H]4C(=O)N5[C@@H]4SC(C)(C)[C@@H]5C(=O)O)cc3)n1[B-]2(F)F [Bocillin-FL]
PBP4^TO [1]
  Bocillin-FL labelling, SDS-PAGE fluorescence: Purified PBP4^TO protein was detectable after Bocillin-FL labeling

## NC(=O)c1cc[n+](CC2=C(C(=O)[O-])N3C(=O)[C@@H](NC(=O)[C@@H](c4ccccc4)S(=O)(=O)O)[C@H]3SC2)cc1 [cefsulodin]
PBP4^TO [2]; weak binder
  Bocillin-FL competition, SDS-PAGE fluorescence: cefsulodin, PBP2 inhibitor mecillinam, PBP4 inhibitor cephalexin

## CC1(C)S[C@@H]2[C@H](N=CN3CCCCCC3)C(=O)N2[C@H]1C(=O)O [mecillinam]
PBP4^TO [2]; weak binder
  Bocillin-FL competition, SDS-PAGE fluorescence: PBP2 inhibitor mecillinam, PBP4 inhibitor cephalexin

## C[C@@H](O)[C@H]1C(=O)N2C(C(=O)O)=C(S[C@@H]3CN[C@H](C(=O)N(C)C)C3)[C@H](C)[C@H]12 [meropenem]
PBP4^TO [2]; possible allosteric second site at high concentration
  Bocillin-FL competition, SDS-PAGE fluorescence: does present some affinity for PBP4^TO, whereas Bocillin-FL intensity is enhanced with high-concentration treatment

## CC1(C)S[C@@H]2[C@H](NC(=O)Cc3ccccc3)C(=O)N2[C@H]1C(=O)O [penicillin G]
PBP4^TO [2]
  Bocillin-FL competition, SDS-PAGE fluorescence: penicillin G had a similar affinity for PBP4^TO as for PBP4^EC
